Legend:
CB2 = molecular target: T1, CB2 (Homo sapiens, UniProt P34972); assay: cAMP assay (HitHunter), inhibition of forskolin-stimulated cAMP in CHO-K1-CB2 cells; type: cell-based
T1 construct: gene CNR2; expressed in CHO-K1-CB2 cell line (DiscoverX), cAMP reporter platform
Excerpt: cAMP assay (HitHunter), inhibition of forskolin-stimulated cAMP in CHO-K1-CB2 cells on CB2

CB1 = molecular target: T2, CB1 (Homo sapiens, UniProt P21554); assay: cAMP assay (HitHunter), inhibition of forskolin-stimulated cAMP in CHO-K1-CB1 cells; type: cell-based
T2 construct: gene CNR1; expressed in CHO-K1-CB1 cell line (DiscoverX), cAMP reporter platform
T2 sequence (P21554 whole entry): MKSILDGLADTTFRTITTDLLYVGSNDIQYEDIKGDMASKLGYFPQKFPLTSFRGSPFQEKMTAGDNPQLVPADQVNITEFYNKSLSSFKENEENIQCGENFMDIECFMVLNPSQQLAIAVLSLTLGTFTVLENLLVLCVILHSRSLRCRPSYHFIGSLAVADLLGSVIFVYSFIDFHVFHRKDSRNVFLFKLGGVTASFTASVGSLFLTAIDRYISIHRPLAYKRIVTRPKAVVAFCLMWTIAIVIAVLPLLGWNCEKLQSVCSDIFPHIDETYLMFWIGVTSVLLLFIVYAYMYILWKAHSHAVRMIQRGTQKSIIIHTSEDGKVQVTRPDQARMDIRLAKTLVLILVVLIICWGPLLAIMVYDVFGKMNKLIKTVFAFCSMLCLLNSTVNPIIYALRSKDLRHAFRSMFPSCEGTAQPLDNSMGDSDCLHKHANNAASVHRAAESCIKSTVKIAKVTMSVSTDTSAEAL
Excerpt: cAMP assay (HitHunter), inhibition of forskolin-stimulated cAMP in CHO-K1-CB1 cells on CB1

[1] = read-out: Receptor Potency (μM) / ^b IC50 (Antagonist) / CB1

T1 sequence (P34972 whole entry): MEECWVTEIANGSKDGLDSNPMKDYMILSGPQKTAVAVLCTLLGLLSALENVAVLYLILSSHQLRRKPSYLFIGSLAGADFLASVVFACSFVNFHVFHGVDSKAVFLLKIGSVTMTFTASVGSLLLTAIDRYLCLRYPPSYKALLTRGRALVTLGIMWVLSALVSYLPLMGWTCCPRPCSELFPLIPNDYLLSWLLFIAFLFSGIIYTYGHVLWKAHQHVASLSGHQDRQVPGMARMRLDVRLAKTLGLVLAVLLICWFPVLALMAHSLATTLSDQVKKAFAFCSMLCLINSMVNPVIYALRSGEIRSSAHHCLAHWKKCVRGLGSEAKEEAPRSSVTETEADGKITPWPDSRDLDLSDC

Question: What does the source list for C=C(C)[C@@H]1CCC(C)=C[C@H]1c1c(O)cc(CCCCC)c(C(=O)O)c1O [CBDA]?
Answer: EC50 (CB2; read-out: Receptor Potency (μM) / ^a EC50 (Agonist) / CB2): 17 ± 4 µM; IC50 (CB2; [1]): > 10 µM; EC50 (CB1; read-out: Receptor Potency (μM) / ^a EC50 (Agonist) / CB1): 17 ± 3 µM; IC50 (CB1; [1]): > 10 µM

Source: paper PMC7436063, “Bioactive Chemical Composition of Cannabis Extracts and Cannabinoid Receptors” (Molecules, 2020)
